Experimental data reported in article PMC8640094, “Diaportones A–C: Three New Metabolites From Endophytic Fungus Diaporthe foeniculina BZM-15” (Frontiers in Chemistry, 2021).
≈ marks a conversion by molar mass, not a printed value.

Key:
MRSA (JCSC 3063) = experiment: Antibacterial assay, broth macrodilution, MRSA; assay type: cell-based; details: Staphylococcus aureus
Method: Antibacterial activity of all compounds against MRSA (JCSC 3063) and E. coli (ATCC 8739) was tested by the broth […] method on 96-well plates according to the CLSI recommendation ([Li et al., 2014]).

normal cell line LX-2 = experiment: MTT cytotoxicity assay, normal cell line LX-2; assay type: cell-based; details: 72 h
Method: (§1) The cytotoxicity of all compounds against three human tumor cell lines, SF-268 (CNS cancer), MCF-7 (breast cancer), and HepG2 (hepatoma cancer), and normal cell line LX-2 was tested using the MTT assay. […] All cells were seeded into 96-well plates at 5 × 10^4 cells/ml and incubated at 37°C under a 5% CO2 atmosphere for 24 h. Then, the tested compounds were added. After 72 h, MTT solution was added into each well, which was further incubated. The cell-free supernatant was removed and formazan crystals were subsequently dissolved in DMSO. Optical density (OD) was recorded at 490 nm on a microplate reader to calculate the IC50 values.

HepG2 (hepatoma cancer) = experiment: MTT cytotoxicity assay, HepG2 cells; assay type: cell-based, human; details: Homo sapiens
Method: (§2) The cytotoxicity of all compounds against three human tumor cell lines, SF-268 (CNS cancer), MCF-7 (breast cancer), and HepG2 (hepatoma cancer), and normal cell line LX-2 was tested using the MTT assay. Adriamycin was used as a positive control. All cells were seeded into 96-well plates at 5 × 10^4 cells/ml and incubated at 37°C under a 5% CO2 atmosphere for 24 h. Then, the tested compounds were added. After 72 h, MTT solution was added into each well, which was further incubated. The cell-free supernatant was removed and formazan crystals were subsequently dissolved in DMSO. Optical density (OD) was recorded at 490 nm on a microplate reader to calculate the IC50 values.

SF-268 (CNS cancer) = experiment: MTT cytotoxicity assay, SF-268 cells; assay type: cell-based, human; details: Homo sapiens
Method: as §2

MCF-7 (breast cancer) = experiment: MTT cytotoxicity assay, MCF-7 cells; assay type: cell-based, human; details: Homo sapiens
Method: as §1

Compound `CN[C@H](CC(C)C)C(=O)N[C@H]1C(=O)N[C@@H](CC(N)=O)C(=O)N[C@H]2C(=O)N[C@H]3C(=O)N[C@H](C(=O)N[C@H](C(=O)O)c4cc(O)cc(O)c4-c4cc3ccc4O)[C@H](O)c3ccc(c(Cl)c3)Oc3cc2cc(c3O[C@@H]2O[C@H](CO)[C@@H](O)[C@H](O)[C@H]2O[C@H]2C[C@](C)(N)[C@H](O)[C@H](C)O2)Oc2ccc(cc2Cl)[C@H]1O` [Vancomycin] has an MIC (MRSA (JCSC 3063)) of 1.25 µg/mL (≈ 0.863 µM).
In the case of `CC1(O)CC2OC23C(C)(C)C(Cl)CCC3(C)C1C(=O)O` (stereo not shown) [compound 6, altiloxin B], the inhibition at 1 µM (normal cell line LX-2; LX-2, c 1.00 μM, three replicates) is reported as 8.12%, the inhibition at 2 µM (normal cell line LX-2; LX-2, c 2.00 μM, three replicates) is reported as 11.8% and the inhibition at 4 µM (normal cell line LX-2; LX-2, c 4.00 μM, three replicates) is reported as 15.9%. For the same compound, the inhibition at 8 µM (normal cell line LX-2; LX-2, c 8.00 μM, three replicates) was 26.5%, the inhibition at 16 µM (normal cell line LX-2; LX-2, c 16.00 μM, three replicates) was 31.3% and the inhibition at 32 µM (normal cell line LX-2; LX-2, c 32.00 μM, three replicates) was 40.5%. For the same compound, the inhibition at 64 µM (normal cell line LX-2; LX-2, c 64.00 μM, three replicates) was 65%, the inhibition at 128 µM (normal cell line LX-2; LX-2, c 128.00 μM, three replicates) was 73.5% and the IC50 (normal cell line LX-2; MTT, mean ± SD (n = 3)) was greater than 40 µM. It also gave an inhibition at 1 µM (HepG2 (hepatoma cancer); HepG2, 72 h, HepG2, c 1.00 μM, three replicates, read-out: cell inhibition) of 1.37%, an inhibition at 2 µM (HepG2 (hepatoma cancer); HepG2, 72 h, HepG2, c 2.00 μM, three replicates, read-out: cell inhibition) of 5.78% and an inhibition at 4 µM (HepG2 (hepatoma cancer); HepG2, 72 h, HepG2, c 4.00 μM, three replicates, read-out: cell inhibition) of 10.6%. For the same compound, the inhibition at 8 µM (HepG2 (hepatoma cancer); HepG2, 72 h, HepG2, c 8.00 μM, three replicates, read-out: cell inhibition) was 14.6%, the inhibition at 16 µM (HepG2 (hepatoma cancer); HepG2, 72 h, HepG2, c 16.00 μM, three replicates, read-out: cell inhibition) was 19.5% and the inhibition at 32 µM (HepG2 (hepatoma cancer); HepG2, 72 h, HepG2, c 32.00 μM, three replicates, read-out: cell inhibition) was 26.6%. The inhibition at 64 µM (HepG2 (hepatoma cancer); HepG2, 72 h, HepG2, c 64.00 μM, three replicates, read-out: cell inhibition) was 63.3%, the inhibition at 128 µM (HepG2 (hepatoma cancer); HepG2, 72 h, HepG2, c 128.00 μM, three replicates, read-out: cell inhibition) was 79.7% and the IC50 (HepG2 (hepatoma cancer); HepG2, MTT, 72 h, mean ± SD (n = 3)) was greater than 40 µM. The inhibition at 1 µM (SF-268 (CNS cancer); SF-268, 72 h, SF268 cells, c 1.00 μM, triplicate values, read-out: cell inhibition) was 3.44%, the inhibition at 2 µM (SF-268 (CNS cancer); SF-268, 72 h, SF268 cells, c 2.00 μM, triplicate values, read-out: cell inhibition) was 5.06% and the inhibition at 4 µM (SF-268 (CNS cancer); SF-268, 72 h, SF268 cells, c 4.00 μM, triplicate values, read-out: cell inhibition) was 7.23%. For the same compound, the inhibition at 8 µM (SF-268 (CNS cancer); SF-268, 72 h, SF268 cells, c 8.00 μM, triplicate values, read-out: cell inhibition) was 9.25%, the inhibition at 16 µM (SF-268 (CNS cancer); SF-268, 72 h, SF268 cells, c 16.00 μM, triplicate values, read-out: cell inhibition) was 12.9% and the inhibition at 32 µM (SF-268 (CNS cancer); SF-268, 72 h, SF268 cells, c 32.00 μM, triplicate values, read-out: cell inhibition) was 22.6%. The inhibition at 64 µM (SF-268 (CNS cancer); SF-268, 72 h, SF268 cells, c 64.00 μM, triplicate values, read-out: cell inhibition) was 49.5%, the inhibition at 128 µM (SF-268 (CNS cancer); SF-268, 72 h, SF268 cells, c 128.00 μM, triplicate values, read-out: cell inhibition) was 60.3% and the IC50 (SF-268 (CNS cancer); SF-268, MTT, 72 h, mean ± SD (n = 3), read-out: IC50 SF268) was greater than 40 µM. For the same compound, the inhibition at 1 µM (MCF-7 (breast cancer); MCF7, 72 h, MCF-7, c 1.00 μM, three replicates, read-out: cell inhibition) was 1.37%, the inhibition at 2 µM (MCF-7 (breast cancer); MCF7, 72 h, MCF-7, c 2.00 μM, three replicates, read-out: cell inhibition) was 4.01% and the inhibition at 4 µM (MCF-7 (breast cancer); MCF7, 72 h, MCF-7, c 4.00 μM, three replicates, read-out: cell inhibition) was 8.56%. The inhibition at 8 µM (MCF-7 (breast cancer); MCF7, 72 h, MCF-7, c 8.00 μM, three replicates, read-out: cell inhibition) was 13%, the inhibition at 16 µM (MCF-7 (breast cancer); MCF7, 72 h, MCF-7, c 16.00 μM, three replicates, read-out: cell inhibition) was 18.9% and the inhibition at 32 µM (MCF-7 (breast cancer); MCF7, 72 h, MCF-7, c 32.00 μM, three replicates, read-out: cell inhibition) was 24.3%. The inhibition at 64 µM (MCF-7 (breast cancer); MCF7, 72 h, MCF-7, c 64.00 μM, three replicates, read-out: cell inhibition) was 59.3%, the inhibition at 128 µM (MCF-7 (breast cancer); MCF7, 72 h, MCF-7, c 128.00 μM, three replicates, read-out: cell inhibition) was 66.4% and the IC50 (MCF-7 (breast cancer); MCF7, MTT, 72 h, mean ± SD (n = 3)) was greater than 40 µM.
